# Measured values as given in patent US9776972B2, “Pyrazole derivatives as arginine methyltransferase inhibitors and uses thereof” (priority 2013, dated 2017).
# Experiments:
# human PRMT1 = target: T1, human PRMT1 (Homo sapiens, UniProt Q99873); experiment: PRMT1 Biochemical Assay (3H-SAM Flashplate, peptide substrate); conditions: single experiment or average of multiple experiments
# T1 construct: GST-tagged PRMT1; made in house; host or cells: High Five insect cells (baculovirus)
# Method in brief: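 GST-tagged PRMT1 from baculovirus-infected cells, preincubated with compounds 30 min at room temperature in 20 mM Bicine pH 7.6, 1 mM TCEP, 0.005% BSG, 0.002% Tween 20. Reaction started with ³H-SAM plus biotinylated peptide, stopped with 300 µM cold SAM.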
# human PRMT8 = human PRMT8 (Homo sapiens, UniProt Q9NR22); experiment: PRMT8 Biochemical Assay (3H-SAM Flashplate, peptide substrate); conditions: single experiment or average of multiple experiments
# Method in brief: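 Methylation of a biotin-tagged histone H4 peptide (residues 31-45) by recombinant PRMT8 was measured as 3H transfer from 3H-SAM, after a 30 min room-temperature compound preincubation in Bicine buffer pH 7.6. Reactions were quenched with unlabelled SAM to 400 uM final, then bound counts were read by streptavidin Flashplate. IC50 came from a Hill fit of % inhibition relative to max and SAH min controls.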
# T1 sequence (Q99873 with tags, fused parts or gaps): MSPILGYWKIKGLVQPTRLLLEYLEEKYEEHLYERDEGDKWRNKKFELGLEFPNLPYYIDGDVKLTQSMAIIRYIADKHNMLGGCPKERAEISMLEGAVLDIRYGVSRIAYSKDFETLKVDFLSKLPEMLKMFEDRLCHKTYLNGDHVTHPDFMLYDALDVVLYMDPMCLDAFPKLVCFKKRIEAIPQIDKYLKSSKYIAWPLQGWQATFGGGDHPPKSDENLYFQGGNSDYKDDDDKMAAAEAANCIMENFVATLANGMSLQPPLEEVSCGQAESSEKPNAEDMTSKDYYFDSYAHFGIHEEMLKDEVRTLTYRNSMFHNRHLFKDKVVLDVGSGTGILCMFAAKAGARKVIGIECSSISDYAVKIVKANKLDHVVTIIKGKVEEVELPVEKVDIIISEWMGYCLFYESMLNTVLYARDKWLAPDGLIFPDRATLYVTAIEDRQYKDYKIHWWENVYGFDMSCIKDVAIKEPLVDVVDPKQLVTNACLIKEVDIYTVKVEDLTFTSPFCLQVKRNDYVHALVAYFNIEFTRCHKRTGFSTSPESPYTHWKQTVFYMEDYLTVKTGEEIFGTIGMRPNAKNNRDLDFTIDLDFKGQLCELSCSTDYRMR
# Sequence of human PRMT8 (Q9NR22 whole entry, the tested form may be a part): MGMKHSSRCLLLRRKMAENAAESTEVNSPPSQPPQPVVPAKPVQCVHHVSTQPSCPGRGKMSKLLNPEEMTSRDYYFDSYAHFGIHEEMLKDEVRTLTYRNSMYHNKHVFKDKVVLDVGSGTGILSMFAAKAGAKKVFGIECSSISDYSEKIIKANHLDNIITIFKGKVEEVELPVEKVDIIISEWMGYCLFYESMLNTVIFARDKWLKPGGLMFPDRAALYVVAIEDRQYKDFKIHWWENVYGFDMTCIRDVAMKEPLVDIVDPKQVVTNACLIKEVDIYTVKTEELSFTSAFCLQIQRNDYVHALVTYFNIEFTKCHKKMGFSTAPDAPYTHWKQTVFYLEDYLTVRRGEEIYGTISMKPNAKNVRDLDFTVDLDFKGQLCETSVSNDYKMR
IC50 (human PRMT1) [nM],IC50 (human PRMT8) [nM],SMILES
1500,,CNCCN(C)Cc1cn(C2CC2)nc1-c1ccc(F)cc1 [Compound 13]
123,1380,CNCCN(C)Cc1cnn(C2CC2)c1-c1ccc(F)cc1 [Compound 14]
4380,,CNCCN(C)Cc1cn(C(C)C)nc1-c1ccc(F)cc1 [Compound 15]
36.2,483,CNCCN(C)Cc1cn[nH]c1-c1cc(F)cc(F)c1 [Compound 18]
20.1,167,CN(CCN)Cc1n[nH]cc1-c1ccc(C2CCOCC2)cc1 [Compound 145]
46.3,1120,COc1ccc(-c2n[nH]cc2CN(C)CCN)c(Cl)c1 [Compound 146]
2860,,CN(CCN)Cc1c[nH]nc1-c1cc(C#N)ccc1Cl [Compound 147]
121,809,CN(CCN)Cc1c[nH]nc1-c1ccc(C(F)(F)F)cc1F [Compound 148]
61,910,CN(CCN)Cc1c[nH]nc1-c1cccc(N(C)C)c1 [Compound 149]
71.5,566,CCOC(=O)c1cccc(-c2n[nH]cc2CN(C)CCN)c1 [Compound 150]
122,1370,COc1cc(F)ccc1-c1n[nH]cc1CN(C)CCN [Compound 151]
47.2,983,Cc1cc(F)ccc1-c1n[nH]cc1CN(C)CCN [Compound 152]
21.8,132,COc1ccc(-c2n[nH]cc2CN(C)CCN)cc1 [Compound 153]
660,6170,COc1ccc(-c2n[nH]cc2CN(C)CCN)c(C(F)(F)F)c1 [Compound 154]
59.9,977,COc1ccc(-c2n[nH]cc2CN(C)CCN)c(C)c1 [Compound 155]
243,1710,CN(CCN)Cc1c[nH]nc1-c1cc(Cl)ccc1F [Compound 156]
1540,5820,COc1ccc(Cl)cc1-c1n[nH]cc1CN(C)CCN [Compound 157]
2330,,Cc1ccc(C#N)cc1-c1n[nH]cc1CN(C)CCN [Compound 158]
71.9,879,Cc1ccc(F)cc1-c1n[nH]cc1CN(C)CCN [Compound 159]
167,3010,COc1ccc(F)cc1-c1n[nH]cc1CN(C)CCN [Compound 160]
187,2100,Cc1ccccc1-c1n[nH]cc1CN(C)CCN [Compound 161]
17,273,Cc1ccc(-c2n[nH]cc2CN(C)CCN)cc1 [Compound 162]
115,1430,CCN(C)C(=O)c1ccc(-c2n[nH]cc2CN(C)CCN)cc1 [Compound 163]
107,2180,CC(C)CN(C)C(=O)c1ccc(-c2n[nH]cc2CN(C)CCN)cc1 [Compound 164]

IC50 (human PRMT1) [nM],IC50 (human PRMT8) [nM],SMILES
7.27,191,CCOc1ccc(-c2n[nH]cc2CN(C)CCN)cc1 [Compound 166]
9.28,284,COCCOc1ccc(-c2n[nH]cc2CN(C)CCN)cc1 [Compound 167]
307,2990,Cc1[nH]nc(-c2ccc(F)cc2)c1CN(C)CCN [Compound 169]
11.4,160,CC(C)Cc1ccc(-c2c[nH]nc2CN(C)CCN)cc1 [Compound 170]
929,2630,NCCN(CCO)Cc1c[nH]nc1-c1ccc(F)cc1 [Compound 171]
227,3260,CN(CCN)Cc1c[nH]nc1-c1ccc(OCCN2CCOCC2)cc1 [Compound 172]
167,3080,CN(CCN)Cc1c[nH]nc1-c1ccc2c(c1)NC(=O)CO2 [Compound 173]
11.9,228,CNCCN(C)Cc1c[nH]nc1-c1ccc(C(F)(F)F)cc1 [Compound 174]
10.5,,CNCCN(C)Cc1c[nH]nc1-c1ccc(OC2CCOCC2)cc1 [Compound 175]
11.6,,CC(C)Oc1ccc(-c2nn(C)cc2CN(C)CCN)cc1 [Compound 176]
10,,CC(C)Oc1ccc(-c2c(CN(C)CCN)cnn2C)cc1 [Compound 177]
8.28,,CN(CCN)Cc1c[nH]nc1-c1ccc(OC2CCOCC2)cc1 [Compound 178]
17.3,,COCCCOc1ccc(-c2n[nH]cc2CN(C)CCN)cc1 [Compound 179]
4.96,,CNCCN(C)Cc1c[nH]nc1-c1ccc(OC(C)C)c(F)c1 [Compound 181]
4.75,271,CNCCN(C)Cc1c[nH]nc1-c1ccc(Cl)c(F)c1 [Compound 182]
1600,3030,CN(CCN(C)C1CC1)Cc1c[nH]nc1-c1ccc(C#N)cc1 [Compound 184]
1120,4370,CN(CCN1CCC1)Cc1c[nH]nc1-c1ccc(C#N)cc1 [Compound 185]
146,1700,CC(C)Oc1cccc(-c2n[nH]cc2CN(C)CCN)c1 [Compound 187]
163,2890,CC(C)Oc1cc(-c2n[nH]cc2CN(C)CCN)ccc1F [Compound 188]
475,2990,CCC(=O)N1CCN(c2ccc(-c3n[nH]cc3CN(C)CCN)cc2)CC1 [Compound 189]
655,4110,CC(C)CN1C(=O)COc2ccc(-c3n[nH]cc3CN(C)CCN)cc21 [Compound 191]
121,2010,CN(CCN)Cc1c[nH]nc1-c1ccc2c(c1)OCC(=O)N2C [Compound 192]
63.4,845,CC(C)CN1C(=O)COc2cc(-c3n[nH]cc3CN(C)CCN)ccc21 [Compound 193]
14.2,374,CN(CCN)Cc1c[nH]nc1-c1ccc(OCCO)cc1 [Compound 194]

IC50 (human PRMT1) [nM],IC50 (human PRMT8) [nM],SMILES
11.4,402,CN(CCN)Cc1c[nH]nc1-c1ccc(OCCCO)cc1 [Compound 195]
210,2580,CN(CCN)Cc1c[nH]nc1-c1ccc2c(c1)N(C)C(=O)CO2 [Compound 196]
678,2100,CCNC(=O)c1cccc(-c2n[nH]cc2CN(C)CCN)c1 [Compound 197]
2170,,CCN(C)C(=O)c1cccc(-c2n[nH]cc2CN(C)CCN)c1 [Compound 198]
15.1,459,"Cc1cc(-c2n[nH]cc2CN(C)CCN)cc(C)c1OC(C)C [Compound 199, N^1-((3-(4-isopropoxy-3,5-dimethylphenyl)-1H-pyrazol-4-yl)methyl)-N^1-methylethane-1,2-diamine]"
4.27,187,CN(CCN)Cc1c[nH]nc1-c1ccc(Oc2ccccc2)c(C#N)c1 [Compound 202]
4.28,185,CN(CCN)Cc1n[nH]cc1-c1ccc(Oc2ccccc2)cc1 [Compound 203]
3.15,69.3,CNCCN(C)Cc1n[nH]cc1-c1ccc(Oc2ccccc2)cc1 [Compound 204]
2.44,286,CN(CCN)Cc1c[nH]nc1-c1ccc(Oc2cccc(F)c2)cc1 [Compound 205]
6.16,627,CNCCN(C)Cc1cn(C)nc1-c1ccc(Oc2ccccc2)cc1 [Compound 207]
4.16,279,CNCCN(C)Cc1cnn(C)c1-c1ccc(Oc2ccccc2)cc1 [Compound 208]
5.29,483,CNCCN(C)Cc1c[nH]nc1-c1ccc(OCCCOC)cc1 [Compound 209]
8.79,182,CNCCN(C)Cc1n[nH]cc1-c1ccc(OC(C)C)c(F)c1 [Compound 210]
6.08,117,CC(C)Oc1ccc(-c2c[nH]nc2CN(C)CCN)cc1Cl [Compound 211]
6.46,40.3,CNCCN(C)Cc1n[nH]cc1-c1ccc(OC(C)C)c(Cl)c1 [Compound 212]
26.6,,CCn1cc(CN(C)CCNC)c(-c2ccc(OC(C)C)cc2)n1 [Compound 213]
51.9,,CNCCN(C)Cc1cn(C2CCCC2)nc1-c1ccc(OC(C)C)cc1 [Compound 214]
82.2,,CNCCN(C)Cc1cn(C2CCOC2)nc1-c1ccc(OC(C)C)cc1 (stereo not shown) [Compound 215]
21.1,,CNCCN(C)Cc1cnn(C2CCOC2)c1-c1ccc(OC(C)C)cc1 (stereo not shown) [Compound 216]
18.7,,CNCCN(C)Cc1cn(Cc2ccccc2)nc1-c1ccc(OC(C)C)cc1 [Compound 217]
58.4,,C=CCn1cc(CN(C)CCNC)c(-c2ccc(OC(C)C)cc2)n1 [Compound 218]
18.4,,C=CCn1ncc(CN(C)CCNC)c1-c1ccc(OC(C)C)cc1 [Compound 219]
6.47,328,CNCCN(C)Cc1c[nH]nc1-c1ccc(Oc2ccccc2)c(C#N)c1 [Compound 221]
1260,8880,CN(CCN)Cc1c(-c2ccc(C#N)cc2)ncn1C [Compound 222]

SMILES,IC50 (human PRMT1) [nM],IC50 (human PRMT8) [nM]
CNCCN(C)Cc1cnn(C(C)C)c1-c1ccc(F)cc1 [Compound 16],2070,
CNCCN(C)Cc1cn[nH]c1-c1ccc(C#N)cc1 [Compound 17],13.8,89.1
CNCCN(C)Cc1cn(C)nc1-c1ccc(OC(C)C)c(Cl)c1 [Compound 206],7.07,349
"CN(CCN)Cc1c[nH]nc1-c1ccc(Oc2ccccc2)c(F)c1 [Compound 224, N^1-((3-(3-fluoro-4-phenoxyphenyl)-1H-pyrazol-4-yl)methyl)-N^1-methylethane-1,2-diamine]",2.51,346
